Experimental findings from patent US9006221B2, “Method of modulating ship activity” (H. Lee Moffitt Cancer Center and Reserach Institute, Inc., priority 2008, dated 2015) are described below.

Assay [1] deals with FoxP3+CD4+CD25+ Treg cells. Put plainly: FACS quantitation of FoxP3+CD4+CD25+ Treg cells in spleen and lymph node of treated mice. It is filed as in vivo, mouse. The conditions noted are these: daily injection at 125 μM for 7 days. The method, then: FACS quantitation of Mac1^+Gr1^+ Myeloid-Derived Suppressor Cells (Mac1^+Gr1^+ MySC) (A,B) and FoxP3^+CD4^+CD25^+ Treg cells (C,D) in spleen and lymph node of C57BL6 mice treated with NSC13480, vehicle or non-manipulated mice (Normal). ***p<0.001; *p<0.05.
In addition, both donor and host Treg cells can also limit or abrogate GvHD. […] (Paraiso, K. H., et al. 2007. J Immunol 178:2893). […] Adult mice were treated for 7 days with a daily injection of NSC13480 at 125 μM. The frequency of MySC and Treg cells was tested in the spleens of mice treated with NSC13480, the vehicle used for delivery of NSC 13480 and normal, untreated mice.
Antibody staining and flow cytometry (Examples 1-6): Anti-CD16/32 was co-incubated with the samples to block Fc receptor binding. Antibodies used for staining included: NK1.1 (PK136); CD3e (145-2C11); Ly49G2 (4D11); Gr-1 (RB6-8C5); Mac-1(M1/70); CD11c (HL3); CD4 (GK1.5); CD25 (PC61) and were obtained from BD Pharmingen (San Jose, Calif.). FoxP3 (FJK-16s) was purchased from eBioScience (San Diego, Calif.). All samples were acquired on a FACSCalibur and analyzed using FlowJo8.7.1. For viable staining, dead cells were excluded from the analysis following cytometer acquisition of data by exclusion of the 7AAD dye. […]

Another assay concerns human PBMC. Put plainly: Human one-way MLR with pre-treated PBMC stimulators. In kind it is cell-based. As to conditions: stimulator PBMC pre-treated 24 hr with 9.4 μM. An excerpt:
FACS quantitation of Mac1^+Gr1^+ MIR cells in spleen (A) and lymph node (B) of C57BL/6 mice treated with the SHIP1 inhibitor (Compound), vehicle (Vehicle) or unmanipulated controls (Normal) as indicated. (C) Mixed-Leukocyte-Reactions (MLR) where splenocytes from SHIP1 inhibitor-treated C57BL6 (H2b) mice were used as stimulators for BALB/C (H2d) responders. In parallel splenocytes from either unmanipulated (Normal) or Vehicle treated C57BL6 mice were used as positive controls for the MLR. […] (D) Human PBMC were pre-treated for 24 hr with 3α-aminocholestane (Compound) or vehicle, irradiated and then used as stimulators for untreated PBMC from a different donor in a one-way MLR. […] Absolute peripheral blood granulocyte numbers were determined by an automated blood cell analyzer. […]
Mixed leukocyte reactions (MLR): Following RBC lysis, irradiated (2000 Rads) BL6 splenocytes (stimulators) at 8×10^5 cells/well were combined with BALB/c splenocytes (responders) at 4×10^5 cells/well in a one-way MLR assay. […] Incorporated [3H]thymidine was quantitated using a Packard TopCount NXT. Specific [3H]thymidine incorporation into genomic DNA was calculated as the average of the mean (±SEM) of sextuplicate wells. […]

Regarding `OC(c1cc(-c2ccccc2)nc2c1ccc1ccccc12)C1CCCCN1` (stereo not drawn) [NSC13480, (2-phenylbenzo[h]quinolin-4-yl)-piperidin-2-ylmethanol], the “number of Treg cells” value in assay [1] (lymph node) and in assay [1] (spleen) was “increased significantly” each time.
As for `CC(C)CCC[C@@H](C)[C@H]1CC[C@H]2[C@@H]3CC[C@H]4C[C@H](N)CC[C@]4(C)[C@H]3CC[C@]12C` [NSC23922, (3R,5S,8R,9S,10S,13R,14S,17R)-10,13-dimethyl-17-[(2R)-6-methylheptan-2-yl]-2,3,4,5,6,7,8,9,11,12,14,15,16,17-tetradecahydro-1H-cyclopenta[a]phenanthren-3-amine], the “ability of pre-treated human PBMC to prime allogeneic responses by T cells from an unrelated donor” value with human PBMC is “significantly reduces”.
